The record followed here is ChEMBL document CHEMBL4316626, “N-Acyl pyrazoles: Effective and tunable inhibitors of serine hydrolases” (Bioorg Med Chem, 2019).

In general, IC50 refers to the concentration needed to halve the response being measured. A word on the inhibition: it is the drop in the measured response relative to a control, in per cent.

Assay [1] in a line: Inhibition of recombinant rat FAAH deltaTM mutant expressed in Escherichia coli using 14C-labeled oleamide as substrate preincubated for 3 hrs followed by substrate addition and measured by TLC based Dixon-plot analysis. The following applies: read-out: Ki(app).
Assay [2] has as its target T1, Fatty-acid amide hydrolase 1 (Mus musculus, UniProt O08914).
T1 sequence (O08914 whole entry): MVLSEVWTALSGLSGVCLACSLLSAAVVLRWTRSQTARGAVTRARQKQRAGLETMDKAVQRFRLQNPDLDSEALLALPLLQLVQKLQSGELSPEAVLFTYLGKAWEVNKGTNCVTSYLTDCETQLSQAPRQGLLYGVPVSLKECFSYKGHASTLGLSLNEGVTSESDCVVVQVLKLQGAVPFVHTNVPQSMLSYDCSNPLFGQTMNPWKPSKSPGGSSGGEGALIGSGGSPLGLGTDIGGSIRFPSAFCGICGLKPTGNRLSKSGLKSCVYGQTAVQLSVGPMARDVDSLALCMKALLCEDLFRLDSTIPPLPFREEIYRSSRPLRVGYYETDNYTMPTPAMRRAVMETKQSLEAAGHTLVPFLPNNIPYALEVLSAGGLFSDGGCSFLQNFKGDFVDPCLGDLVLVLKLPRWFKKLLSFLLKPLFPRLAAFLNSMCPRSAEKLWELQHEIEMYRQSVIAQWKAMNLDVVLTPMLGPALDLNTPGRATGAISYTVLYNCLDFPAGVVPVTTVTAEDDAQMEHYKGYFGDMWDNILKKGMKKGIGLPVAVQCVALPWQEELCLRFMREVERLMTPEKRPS
Nature of the assay: Inhibition of FP-rhodamine probe binding to FAAH in mouse brain membrane proteome preincubated for 1 hr followed by FP-rhodamine addition and measured after 30 mins by SDS-PAGE based fluorescence assay. The format is cell membranes.

The next assay has as its target T2, Monoglyceride lipase (Mus musculus, UniProt O35678).
T2 sequence (O35678 whole entry): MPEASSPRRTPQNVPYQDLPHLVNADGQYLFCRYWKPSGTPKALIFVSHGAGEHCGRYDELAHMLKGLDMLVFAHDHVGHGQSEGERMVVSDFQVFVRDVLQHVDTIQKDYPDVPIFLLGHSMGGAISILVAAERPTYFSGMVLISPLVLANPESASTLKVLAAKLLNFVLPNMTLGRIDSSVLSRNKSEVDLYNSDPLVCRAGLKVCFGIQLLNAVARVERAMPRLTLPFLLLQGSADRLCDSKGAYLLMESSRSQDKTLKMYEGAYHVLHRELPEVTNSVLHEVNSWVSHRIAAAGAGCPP
The experiment in a line: Inhibition of FP-rhodamine probe binding to MGLL in mouse brain membrane proteome preincubated for 1 hr followed by FP-rhodamine addition and measured after 30 mins by SDS-PAGE based fluorescence assay. The format is cell membranes.

Assay [3] deals with T3, Monoacylglycerol lipase ABHD6 (Mus musculus, UniProt Q8R2Y0).
T3 sequence (Q8R2Y0 whole entry): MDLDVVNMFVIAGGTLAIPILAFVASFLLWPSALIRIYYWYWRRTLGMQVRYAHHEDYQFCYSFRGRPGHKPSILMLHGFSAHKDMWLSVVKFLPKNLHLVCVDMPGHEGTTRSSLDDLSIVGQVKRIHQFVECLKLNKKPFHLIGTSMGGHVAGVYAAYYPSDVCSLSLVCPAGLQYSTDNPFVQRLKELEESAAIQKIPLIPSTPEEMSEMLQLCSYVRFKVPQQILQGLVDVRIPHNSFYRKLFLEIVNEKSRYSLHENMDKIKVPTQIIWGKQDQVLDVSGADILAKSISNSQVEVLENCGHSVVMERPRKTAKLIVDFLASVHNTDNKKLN
Nature of the assay: Inhibition of FP-rhodamine probe binding to ABHD6 in mouse brain membrane proteome preincubated for 1 hr followed by FP-rhodamine addition and measured after 30 mins by SDS-PAGE based fluorescence assay. The format is cell membranes.

Assay [4] addresses T4, Neutral cholesterol ester hydrolase 1 (Mus musculus, UniProt Q8BLF1).
T4 sequence (Q8BLF1 whole entry): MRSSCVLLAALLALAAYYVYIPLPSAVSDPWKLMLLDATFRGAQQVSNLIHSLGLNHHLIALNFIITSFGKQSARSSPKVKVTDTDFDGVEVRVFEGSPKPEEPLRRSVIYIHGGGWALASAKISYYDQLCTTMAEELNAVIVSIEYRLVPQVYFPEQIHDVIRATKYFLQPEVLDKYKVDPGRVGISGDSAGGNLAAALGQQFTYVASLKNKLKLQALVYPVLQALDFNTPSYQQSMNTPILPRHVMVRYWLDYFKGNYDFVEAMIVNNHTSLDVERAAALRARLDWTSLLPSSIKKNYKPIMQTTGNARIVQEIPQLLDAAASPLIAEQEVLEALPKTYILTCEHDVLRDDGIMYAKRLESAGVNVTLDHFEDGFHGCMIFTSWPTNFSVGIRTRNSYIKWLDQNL
Nature of the assay: Inhibition of FP-rhodamine probe binding to KIAA1363 in mouse brain membrane proteome preincubated for 1 hr followed by FP-rhodamine addition and measured after 30 mins by SDS-PAGE based fluorescence assay. The format is cell membranes.

Assay [5] is filed under the species Rattus norvegicus. The experiment in a line: Inhibition of recombinant rat FAAH deltaTM mutant expressed in Escherichia coli at 100 nM using 14C-labeled oleamide as substrate preincubated for 3 hrs by TLC method relative to control.
Assay [6] is filed under the species Rattus norvegicus. The experiment in a line: Irreversible inhibition of recombinant rat FAAH deltaTM mutant expressed in Escherichia coli at 100 nM using 14C-labeled oleamide as substrate preincubated for 3 hrs followed by dialysis for 18 hrs.

The source made the active and inactive calls. The rule behind the calls is not given here.

On to `CN(CCN(C)C(=O)n1cc(C#N)cn1)Cc1cccc(OCc2ccccc2)c1`, for which, in assay [1], the Ki was determined as 0.0013 µM. Also, the IC50 in assay [2] is 0.19 µM; at Monoglyceride lipase it was 0.59 µM; in assay [3], 1.1 µM; in assay [4], above 100 µM.

On to `CN(CCN(C)C(c1ccc(OCc2ccccc2)cc1)c1ccc(OCc2ccccc2)cc1)C(=O)n1cc(C#N)cn1`, for which the IC50 in assay [2] is above 1000 µM; on Monoglyceride lipase, 32 µM; in assay [3], above 1000 µM; in assay [4], above 1000 µM.

As to `Cc1cnn(C(=O)N2CCCCC2)c1`, the Ki in assay [1] was above 1 µM. The IC50 was 2.2 µM in assay [2], 9.2 µM at Monoglyceride lipase, 1.1 µM in assay [3] and above 100 µM in assay [4].

For the compound `CN(CCN(C)C(=O)n1cccn1)Cc1cccc(OCc2ccccc2)c1`, the Ki in assay [1] was 0.0066 µM. Moreover, the IC50 in assay [2] was 3 µM; at Monoglyceride lipase, 4.6 µM; in assay [3], 5.5 µM; in assay [4], above 100 µM.

As for `N#Cc1cnn(C(=O)N2CCCN(Cc3ccc(OCc4ccccc4)cc3)CC2)c1`, in assay [1], the Ki came to 0.0015 µM. The IC50 in assay [2] was below 0.01 µM; at Monoglyceride lipase it was 10 µM; in assay [3] it was 0.085 µM; in assay [4], above 100 µM.

As to `Cc1cnn(C(=O)N2CCN(C(c3ccc(OCc4ccccc4)cc3)c3ccc(OCc4ccccc4)cc3)CC2)c1`, in assay [1], the Ki worked out at 110 µM. Besides, the IC50 in assay [2] is above 100 µM; at Monoglyceride lipase it was 2.1 µM; in assay [3], above 100 µM; in assay [4] it was above 100 µM.

In the case of `Cc1cnn(C(=O)N(C)CCN(C)Cc2cccc(OCc3ccccc3)c2)c1`, the Ki in assay [1] stood at 0.035 µM. Further, the IC50 was 9 µM in assay [2], 4.1 µM at Monoglyceride lipase, 8.3 µM in assay [3] and above 100 µM in assay [4].

As for `N#Cc1cnn(C(=O)N2CCCCC2)c1`, the Ki in assay [1] came to 0.08 µM. Moreover, the IC50 was below 0.01 µM in assay [2], 0.12 µM at Monoglyceride lipase, 0.06 µM in assay [3] and above 100 µM in assay [4].

In the case of `O=C(N1CCCN(Cc2ccc(OCc3ccccc3)cc2)CC1)n1cccn1`, the Ki in assay [1] stood at 0.034 µM. Besides, the IC50 was 0.45 µM in assay [2], 10 µM at Monoglyceride lipase, 0.96 µM in assay [3] and above 100 µM in assay [4].

On to `O=C(NCc1ccc(OCc2ccccc2)cc1)n1cccn1`, for which the Ki in assay [1] worked out at 0.1 µM. In addition, the values for the half-maximal inhibitory concentration (IC50) (in assay [2]; at Monoglyceride lipase; in assay [4]) were 0.8 µM, 0.9 µM and above 100 µM, respectively.

`Cc1cnn(C(=O)N2CCN(C(c3ccc4ccccc4c3)c3ccc4ccccc4c3)CC2)c1`: the IC50 in assay [2] is above 100 µM; on Monoglyceride lipase, 0.26 µM; in assay [3], above 100 µM; in assay [4], above 100 µM.

For `Cc1cnn(C(=O)NCc2ccc(OCc3ccccc3)cc2)c1`, in assay [1], the Ki was 0.3 µM. Moreover, the concentration for half-maximal inhibition (IC50) was 1.2 µM in assay [2], 1 µM on Monoglyceride lipase and above 100 µM in assay [4].

On to `Cc1cnn(C(=O)N2CCCN(Cc3ccc(OCc4ccccc4)cc3)CC2)c1`, for which, in assay [1], the Ki was found to be 0.23 µM. Besides, the IC50 in assay [2] was 0.56 µM; at Monoglyceride lipase it was 9.5 µM; in assay [3], 9.5 µM; in assay [4], above 100 µM.

On to `O=C(N1CCN(C(c2ccc(OCc3ccccc3)cc2)c2ccc(OCc3ccccc3)cc2)CC1)n1cccn1`, for which, in assay [1], the Ki is 73 µM. The IC50 in assay [2] was above 100 µM; at Monoglyceride lipase, 3.9 µM; in assay [3], above 100 µM; in assay [4], above 100 µM.

For the compound `Cc1cnn(C(=O)N(C)CCN(C)C(c2ccc(OCc3ccccc3)cc2)c2ccc(OCc3ccccc3)cc2)c1`, the Ki in assay [1] is 140 µM. Besides, the IC50 (in assay [2]; at Monoglyceride lipase; in assay [3]; in assay [4]) was above 1000 µM in each case.

For `N#Cc1cnn(C(=O)NCc2ccc(OC(c3ccccc3)c3ccccc3)cc2)c1`, the Ki in assay [1] stood at 80 µM. Also, the IC50 (in assay [2]; at Monoglyceride lipase; in assay [4]) was above 100 µM each time.

As for `CN(CCN(C)C(c1ccc(OCc2ccccc2)cc1)c1ccc(OCc2ccccc2)cc1)C(=O)n1cccn1`, the IC50 (in assay [2]; at Monoglyceride lipase; in assay [3]; in assay [4]) was above 1000 µM throughout.

With `CN(CCN(C)C(=O)n1cc(C#N)cn1)Cc1ccc(OCc2ccccc2)cc1`, in assay [1], the Ki was 0.003 µM. Also, the IC50 in assay [2] is 0.12 µM; at Monoglyceride lipase, 0.26 µM; in assay [3], 0.32 µM; in assay [4] it was above 100 µM.

With `O=C(NCc1ccc(OC(c2ccccc2)c2ccccc2)cc1)n1cccn1`, the Ki in assay [1] is 140 µM. Also, the IC50 (in assay [2]; on Monoglyceride lipase; in assay [4]) was above 100 µM in each case.

In the case of `Cc1cnn(C(=O)NCc2ccc(OC(c3ccccc3)c3ccccc3)cc2)c1`, in assay [1], the Ki was found to be 220 µM. The IC50 (in assay [2]; on Monoglyceride lipase; in assay [4]) was above 100 µM throughout.

Consider `Cc1cnn(C(=O)N2CCN(Cc3ccc4ccccc4c3)CC2)c1`, for which, in assay [1], the Ki is 0.13 µM. Further, the IC50 in assay [2] was 0.96 µM; at Monoglyceride lipase, 0.92 µM; in assay [3], 0.01 µM; in assay [4], above 100 µM. The inhibition in the assay listed under Rattus norvegicus [5] was above 70%. Moreover, the inhibition entry in the assay listed under Rattus norvegicus [6] is “Active”.

As for `O=C(N1CCN(C(c2ccc3ccccc3c2)c2ccc3ccccc3c2)CC1)n1cccn1`, the IC50 was above 100 µM in assay [2], 1.8 µM on Monoglyceride lipase, above 100 µM in assay [3] and above 100 µM in assay [4].

For the compound `Cc1cnn(C(=O)N(C)CCN(C)Cc2ccc(OCc3ccccc3)cc2)c1`, in assay [1], the Ki came to 0.07 µM. Also, the IC50 in assay [2] was 8.7 µM; at Monoglyceride lipase it was 1.2 µM; in assay [3], 1.2 µM; in assay [4], above 100 µM.

Regarding `N#Cc1cnn(C(=O)NCc2ccc(OCc3ccccc3)cc2)c1`, the Ki in assay [1] was found to be 0.017 µM. In addition, the figures for the IC50 (in assay [2]; on Monoglyceride lipase; in assay [4]) were 0.06 µM, 0.1 µM and above 100 µM, respectively.

On to `CN(CCN(C)C(=O)n1cccn1)Cc1ccc(OCc2ccccc2)cc1`, for which, in assay [1], the Ki turned out to be 0.013 µM. For the same compound, the IC50 in assay [2] is 0.51 µM; at Monoglyceride lipase it was 0.66 µM; in assay [3], 0.53 µM; in assay [4], above 100 µM.

On to `O=C(N1CCCCC1)n1cccn1`, for which the Ki in assay [1] is 0.75 µM. For the same compound, the IC50 in assay [2] is 1 µM; at Monoglyceride lipase, 6.6 µM; in assay [3], 5 µM; in assay [4], above 100 µM.
